These are literature values, as cited in patent publication US20130109746A1, “COMPOSITION COMPRISING ELLAGIC ACID AND A PARTICULAR CATIONIC SURFACTANT, AND COSMETIC USE THEREOF” (L'OREAL S.A., priority 2010, published 2013).

The conditions of the data set: in water and in the solvents and oils commonly used in cosmetic compositions.

Take `O=c1oc2c(O)c(O)cc3c(=O)oc4c(O)c(O)cc1c4c23` [ellagic acid, 2,3,7,8-tetrahydroxy(1)benzopyrano(5,4,3-cde)(1)benzopyran-5,10-dione]: the solubility result is “very sparingly soluble”.
